Laboratory results published in patent publication US5258492A, “LHRH analogues with cytotoxic moieties at the sixth position” (The Administrators of the Tulane Educational Fund, priority 1991, dated 1993).

Assays:
[1] = test system: human breast carcinoma cells; details: prior art; cited from earlier work
rat mammary carcinomas = details: prior art; compared with ovariectomy; cited from earlier work
[2] = test system: membrane receptors of human prostate cancer; test: Affinity to membrane receptors of human prostate cancer using 125I-labeled [D-Trp6]LHRH; assay type: binding
Method: (§1) This is determined by using labelled LHRH and [D-Trp^6 ]LHRH. The assay is carried out similarly to that described by T. Kadar et al., Proc. Natl. Acad. Sci. USA, 85, 890-894 (1988).
(§2) *Affinity constants of the peptides for the first receptor class, Ka
(§3) (i.e. for high affinity binding sites) and for the second receptor class,
(§4) Ka2 (i.e. for low affinity binding sites) of human prostate cancer
(§5) and rat Dunning tumor, respectively, as determined by using ^125
(§6) Ilabeled [DTrp^6 ]LHRH.

[3] = test system: membrane receptors of rat Dunning tumor; test: Affinity to membrane receptors of rat Dunning tumor using 125I-labeled [D-Trp6]LHRH; assay type: binding
Method: as §1, §2, §3, §4, §5, §6

[4] = target: T1, membrane receptors of pituitary of male rats (Rattus norvegicus, UniProt P30969); test: Binding affinity for membrane receptors of rat pituitary using 125I-labeled [D-Trp6]LHRH; details: Table 2, high affinity binding sites
T1 construct: from tissue; host or cells: pituitary of male rats (membranes)
T1 sequence (P30969 1-327): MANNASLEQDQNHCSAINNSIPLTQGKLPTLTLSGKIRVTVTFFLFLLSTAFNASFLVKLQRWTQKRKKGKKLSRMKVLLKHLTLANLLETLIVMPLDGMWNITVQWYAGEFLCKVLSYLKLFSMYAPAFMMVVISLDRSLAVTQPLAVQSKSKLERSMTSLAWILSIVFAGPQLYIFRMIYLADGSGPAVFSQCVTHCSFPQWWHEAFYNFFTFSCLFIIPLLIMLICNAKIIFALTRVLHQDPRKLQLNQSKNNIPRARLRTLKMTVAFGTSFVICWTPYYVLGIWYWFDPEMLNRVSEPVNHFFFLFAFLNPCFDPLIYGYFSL
Method: as §1
(§7) Table 2 presents the antiovulatory activity of the claimed compounds having LHRH-inhibiting properties. The inhibitory action was determined in vivo, in 4-day cycling rats as described [A. Corbin and C. W. Beattie, Endocr. Res. Commun., 2, 1-23 (1975)]. Affinities of the claimed compounds to membrane receptors of rat pituitary and human breast cancer cells are also given in Tables 1 and 2 as determined by using [^125 I,D-Trp^6 ]LHRH.
(§8) **Affinity constants of the peptides for the first receptor class (i.e.
(§9) for high affinity binding sites) of pituitary of male rats and human
(§10) breast cancer cells, respectively, as determined by using ^125
as §6
(§11) breast cancer cells, respectively, were determined by using ^125

[5] = target: T2, membrane receptors of human breast cancer cells (Homo sapiens, UniProt P30968); test: Binding affinity for membrane receptors of human breast cancer cells using 125I-labeled [D-Trp6]LHRH; details: Table 2, high affinity binding sites
T2 construct: endogenous in cells; host or cells: human breast cancer cells (membranes)
T2 sequence (P30968 1-328): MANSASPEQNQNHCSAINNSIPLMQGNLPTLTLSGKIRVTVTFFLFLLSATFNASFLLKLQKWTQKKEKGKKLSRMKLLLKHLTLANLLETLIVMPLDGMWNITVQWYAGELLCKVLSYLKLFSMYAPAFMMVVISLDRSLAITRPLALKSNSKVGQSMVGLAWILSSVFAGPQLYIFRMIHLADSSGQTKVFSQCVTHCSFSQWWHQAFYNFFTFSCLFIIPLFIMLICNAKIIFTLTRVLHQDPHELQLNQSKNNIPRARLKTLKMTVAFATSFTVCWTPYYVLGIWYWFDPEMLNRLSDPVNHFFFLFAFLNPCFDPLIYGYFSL
Method: as §1, §7, §8, §9, §10, §6, §11

4-day cycling rats = test: In vivo antiovulatory activity in 4-day cycling rats; parameters: species or system rat
Method: This activity of the peptides is determined in 4-day-cycling rats as described [A. Corbin and C. W. Beattie, Endocr. Res. Commun., 2, 1-23 (1975)].
as §7
*LHRH-inhibiting potencies were assayed in 4day cyclic rats.

LHRH = details: prior art; cited from earlier work
[6] = first receptor class (high affinity binding sites)
[7] = second receptor class (low affinity binding sites)

| Compound | Binding affinity, Ka1, for membrane receptors of pituitary [4] [nM⁻¹] | Binding affinity, Ka1, for membrane receptors of cancer cells [5] [nM⁻¹] | % Blockade of ovulation (4-day cycling rats; Dose 3 μg/rat) [%] | also measured |
| --- | --- | --- | --- | --- |
| CCNC(=O)[C@@H]1CCCN1C(=O)[C@H](CCCNC(=N)N)NC(=O)[C@H](CC(C)C)NC(=O)[C@@H](COC(C)(C)C)NC(=O)[C@H](Cc1ccc(O)cc1)NC(=O)[C@H](CO)NC(=O)[C@H](Cc1c[nH]c2ccccc12)NC(=O)[C@H](Cc1cnc[nH]1)NC(=O)[C@@H]1CCC(=O)N1 [Example A3] | – | – | – | growth of human breast carcinoma cells containing LHRH binding sites (in words) [1]: inhibited |
| CC(C)C[C@H](NC(=O)[C@@H](COC(C)(C)C)NC(=O)[C@H](Cc1ccc(O)cc1)NC(=O)[C@H](CO)NC(=O)[C@H](Cc1c[nH]c2ccccc12)NC(=O)[C@H](Cc1cnc[nH]1)NC(=O)[C@@H]1CCC(=O)N1)C(=O)N[C@@H](CCCNC(=N)N)C(=O)N1CCC[C@H]1C(=O)NNC(N)=O [Example A4] | – | – | – | effectiveness in treatment of rat mammary carcinomas (in words) (rat mammary carcinomas): as effective as ovariectomy |
| CC(C)C[C@H](NC(=O)[C@@H](Cc1c[nH]c2ccccc12)NC(=O)[C@H](Cc1ccc(O)cc1)NC(=O)[C@H](CO)NC(=O)[C@H](Cc1c[nH]c2ccccc12)NC(=O)[C@H](Cc1c[nH]cn1)NC(=O)[C@@H]1CCC(=O)N1)C(=O)N[C@@H](CCCNC(=N)N)C(=O)N1CCC[C@H]1C(=O)NCC(N)=O [[D-Trp^6]-LHRH, [D-Trp^6]LHRH, reference compound] | – | – | – | Human prostate cancer Ka1 [2, 6]: 0.04 nM⁻¹; Dunning tumor Ka1 [3, 6]: 1.87 nM⁻¹ |
| Ac-D-Nal(2)-D-Phe(4Cl)-D-Pal(3)-Ser-Arg-D-Lys[(Cu^++)(POL)2 (DL-A2 pr)]-Leu-Arg-Pro-D-Ala-NH2 [XXIV] | 5.483 | 2.628 | 50 | – |
| Ac-D-Nal(2)-D-Phe(4Cl)-D-Pal(3)-Ser-Arg-D-Lys[(Cu^++)(POLP)2 (DL-A2 pr)]-Leu-Arg-Pro-D-Ala-NH2 [Example XX] | 5.250 | 2.436 | 80 | – |
| Ac-D-Nal(2)-D-Phe(4Cl)-D-Pal(3)-Ser-Arg-D-Lys[(Ni^++)(SAL)2 (DL-A2 pr)]-Leu-Arg-Pro-D-Ala-NH2 [XIII] | 1.821 | 0.878 | – | % Blockade of ovulation (4-day cycling rats; rat, in vivo): 100 |
| Ac-D-Nal(2)-D-Phe(4Cl)-D-Trp-Ser-Arg-D-Lys[(Cu^++)(POLP)2 (DL-A2 pr)]-Leu-Arg-Pro-D-Ala-NH2 [Example XXII] | 2.901 | 1.337 | – | % Blockade of ovulation (4-day cycling rats; Dose 10 μg/rat): 60% |
| Ac-D-Nal(2)-D-Phe(4Cl)-D-Trp-Ser-Arg-D-Lys[(Cu^++)(SAL)2 (DL-A2 pr)]-Leu-Arg-Pro-D-Ala-NH2 [XII] | 9.183 | 4.951 | 20 | – |
| Ac-D-Nal(2)-D-Phe(4Cl)-D-Trp-Ser-Arg-D-Lys[(Ni^++)(SAL)2 (DL-A2 pr)]-Leu-Arg-Pro-D-Ala-NH2 [Example XV] | 8.676 | 4.418 | 20 | – |
| Ac-D-Nal(2)-D-Phe(4Cl)-D-Trp-Ser-Arg-D-Mel-Leu-Arg-Pro-D-Ala-NH2 [IIA] | – | – | – | Human prostate cancer Ka2 [2, 7]: 0.97 µM⁻¹; Dunning tumor Ka2 [3, 7]: 25.1 µM⁻¹ |
| [Chlorambucil-D-Leu^2,D-Leu^3,D-Ala^6 ]LHRH (2-10) | – | – | – | activity of Chlorambucil-linked LHRH agonist / antagonist analogue (in words) (LHRH): moderate activities |
| [Chlorambucil-D-Phe^1,D-Phe^2,D-Trp^3,6 ]LHRH | – | – | – | activity of Chlorambucil-linked LHRH agonist / antagonist analogue (in words) (LHRH): practically inactive |
| [D-Lys(Chlorambucil)^6 ] LHRH | – | – | – | activity of Chlorambucil-linked LHRH agonist / antagonist analogue (in words) (LHRH): moderate activities |
